Results on eleven compounds are retold here after patent US20260356819A1, “OXOISOINDOLINYL-SUBSTITUTED […] DERIVATIVE AND USE THEREOF” (GLUETACS THERAPEUTICS (SHANGHAI) CO., LTD., priority 2023, published 2026).

What all share (format): cell-based
Holding throughout (settings): compounds at 50 nM and 500 nM

For one assay, the target named is T1, WEE1 (Homo sapiens, UniProt P30291+Q96SW2).
T1 construct: The supernatant was aspirated as the extracted total cell protein; endogenous in cells; host or cells: human peripheral blood mononuclear cells (hPBMCs)
In words: Western blot degradation of WEE1 in hPBMCs (24 h). In short, it runs like this: (§1)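 Thawed human PBMCs, 1×10^6 cells/mL; cpd 50 nM or 500 nM, 24 h; RIPA lysis, BCA, SDS-PAGE, NC transfer, immunoblot. Readout: grayscale/internal control → % remaining; degradation = 1 − remaining.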

Another assay concerns the target T2, IKZF1 (Homo sapiens, UniProt Q13422+Q96SW2).
T2 construct: The supernatant was aspirated as the extracted total cell protein; endogenous in cells; host or cells: human peripheral blood mononuclear cells (hPBMCs)
In words: Western blot degradation of IKZF1 in hPBMCs (24 h). In short, it runs like this:
as §1
(In western blotting, separated proteins are transferred to a membrane and probed.)

The target of a further assay is T3, IKZF2 (Homo sapiens, UniProt Q96SW2+Q9UKS7).
T3 construct: The supernatant was aspirated as the extracted total cell protein; endogenous in cells; host or cells: human peripheral blood mononuclear cells (hPBMCs)
Description: Western blot degradation of IKZF2 in hPBMCs (24 h). In short, it runs like this:
as §1

In a further assay the target is T4, IKZF3 (Homo sapiens, UniProt Q96SW2+Q9UKT9).
T4 construct: The supernatant was aspirated as the extracted total cell protein; endogenous in cells; host or cells: human peripheral blood mononuclear cells (hPBMCs)
In words: Western blot degradation of IKZF3 in hPBMCs (24 h). In short, it runs like this:
as §1

The target of another assay is T5, CK1α (Homo sapiens, UniProt P48729+Q96SW2).
T5 construct: The supernatant was aspirated as the extracted total cell protein; endogenous in cells; host or cells: human peripheral blood mononuclear cells (hPBMCs)
In words: Western blot degradation of CK1α in hPBMCs (24 h). In short, it runs like this:
as §1

The next assay concerns the target T6, GSPT1 (Homo sapiens, UniProt P15170+Q96SW2).
T6 construct: The supernatant was aspirated as the extracted total cell protein; endogenous in cells; host or cells: human peripheral blood mononuclear cells (hPBMCs)
Description: Western blot degradation of GSPT1 in hPBMCs (24 h). In short, it runs like this: as §1

T1 sequence (P30291 whole entry): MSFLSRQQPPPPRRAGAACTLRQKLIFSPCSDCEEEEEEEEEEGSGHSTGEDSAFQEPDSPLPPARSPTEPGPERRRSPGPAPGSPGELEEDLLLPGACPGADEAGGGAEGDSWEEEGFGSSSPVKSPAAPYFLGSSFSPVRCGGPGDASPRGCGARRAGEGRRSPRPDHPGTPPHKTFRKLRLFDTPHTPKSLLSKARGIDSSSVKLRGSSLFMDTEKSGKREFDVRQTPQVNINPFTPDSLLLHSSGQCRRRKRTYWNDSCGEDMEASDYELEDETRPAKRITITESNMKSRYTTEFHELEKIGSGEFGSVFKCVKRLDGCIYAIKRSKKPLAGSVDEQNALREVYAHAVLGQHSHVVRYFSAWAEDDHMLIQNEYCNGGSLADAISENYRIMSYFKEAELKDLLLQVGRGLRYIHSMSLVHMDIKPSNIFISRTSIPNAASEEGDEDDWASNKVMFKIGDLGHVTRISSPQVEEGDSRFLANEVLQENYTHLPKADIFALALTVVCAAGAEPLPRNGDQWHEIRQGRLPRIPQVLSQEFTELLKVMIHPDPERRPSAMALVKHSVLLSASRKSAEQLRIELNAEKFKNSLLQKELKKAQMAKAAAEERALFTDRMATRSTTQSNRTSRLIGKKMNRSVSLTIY
T1 sequence (Q96SW2 whole entry): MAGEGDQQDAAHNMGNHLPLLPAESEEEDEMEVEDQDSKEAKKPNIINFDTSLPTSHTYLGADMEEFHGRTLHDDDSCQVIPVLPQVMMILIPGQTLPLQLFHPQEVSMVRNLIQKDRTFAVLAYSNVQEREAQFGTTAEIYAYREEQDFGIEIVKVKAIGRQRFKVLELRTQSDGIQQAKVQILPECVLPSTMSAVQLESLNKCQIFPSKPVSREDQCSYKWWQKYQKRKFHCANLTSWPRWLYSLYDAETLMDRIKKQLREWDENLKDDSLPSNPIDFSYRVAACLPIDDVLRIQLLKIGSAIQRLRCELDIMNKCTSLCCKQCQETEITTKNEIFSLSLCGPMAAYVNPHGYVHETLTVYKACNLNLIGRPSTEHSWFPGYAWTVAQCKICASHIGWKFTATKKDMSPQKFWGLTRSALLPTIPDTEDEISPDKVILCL
T1 sequence (Q16531 whole entry partner): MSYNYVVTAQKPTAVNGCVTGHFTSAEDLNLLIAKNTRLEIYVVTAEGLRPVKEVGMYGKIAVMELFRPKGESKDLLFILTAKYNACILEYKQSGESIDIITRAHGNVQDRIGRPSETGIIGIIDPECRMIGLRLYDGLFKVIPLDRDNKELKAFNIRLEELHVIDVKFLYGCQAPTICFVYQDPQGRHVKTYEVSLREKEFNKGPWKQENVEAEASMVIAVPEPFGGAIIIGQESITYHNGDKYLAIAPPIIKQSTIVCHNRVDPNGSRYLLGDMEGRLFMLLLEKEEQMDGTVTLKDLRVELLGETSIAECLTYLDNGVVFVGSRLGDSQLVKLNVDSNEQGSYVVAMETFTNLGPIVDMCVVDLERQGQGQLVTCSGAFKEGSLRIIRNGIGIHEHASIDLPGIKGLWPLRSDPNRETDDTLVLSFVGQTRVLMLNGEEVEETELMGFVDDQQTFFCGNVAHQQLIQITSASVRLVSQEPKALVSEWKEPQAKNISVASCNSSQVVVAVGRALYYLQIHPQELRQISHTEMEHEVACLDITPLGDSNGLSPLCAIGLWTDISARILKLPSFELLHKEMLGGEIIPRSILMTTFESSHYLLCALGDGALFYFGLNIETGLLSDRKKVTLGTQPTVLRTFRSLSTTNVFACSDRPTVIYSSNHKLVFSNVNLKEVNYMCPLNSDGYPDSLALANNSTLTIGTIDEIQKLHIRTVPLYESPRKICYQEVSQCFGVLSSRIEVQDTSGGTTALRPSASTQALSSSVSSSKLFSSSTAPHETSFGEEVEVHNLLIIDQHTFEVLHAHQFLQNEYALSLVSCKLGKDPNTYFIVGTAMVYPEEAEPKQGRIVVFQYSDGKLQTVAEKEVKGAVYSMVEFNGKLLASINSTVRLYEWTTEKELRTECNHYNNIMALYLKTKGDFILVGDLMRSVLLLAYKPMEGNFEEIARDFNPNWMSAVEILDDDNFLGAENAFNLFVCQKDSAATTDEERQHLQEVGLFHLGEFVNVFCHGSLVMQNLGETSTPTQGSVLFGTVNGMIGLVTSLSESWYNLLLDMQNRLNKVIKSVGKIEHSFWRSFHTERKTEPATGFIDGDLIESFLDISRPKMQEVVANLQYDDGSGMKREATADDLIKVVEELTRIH
T2 sequence (Q13422 whole entry): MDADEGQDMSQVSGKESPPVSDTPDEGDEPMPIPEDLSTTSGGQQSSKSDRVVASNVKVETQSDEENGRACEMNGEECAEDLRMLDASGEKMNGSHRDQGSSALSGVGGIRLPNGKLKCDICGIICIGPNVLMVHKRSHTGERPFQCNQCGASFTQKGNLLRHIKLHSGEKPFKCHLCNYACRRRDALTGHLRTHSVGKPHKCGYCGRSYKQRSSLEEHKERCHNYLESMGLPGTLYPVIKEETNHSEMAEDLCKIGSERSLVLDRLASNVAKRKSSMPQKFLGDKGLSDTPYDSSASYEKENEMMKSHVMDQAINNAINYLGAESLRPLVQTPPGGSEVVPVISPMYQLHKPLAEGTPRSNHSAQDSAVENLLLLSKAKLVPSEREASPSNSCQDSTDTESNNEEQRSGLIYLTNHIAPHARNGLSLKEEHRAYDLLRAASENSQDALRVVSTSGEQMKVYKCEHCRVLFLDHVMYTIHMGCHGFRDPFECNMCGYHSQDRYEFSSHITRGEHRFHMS
T2 sequence (Q96SW2 whole entry): as the sequence (Q96SW2 whole entry) above
T2 sequence (Q16531 whole entry partner): as the sequence (Q16531 whole entry partner) above
T3 sequence (Q9UKS7 whole entry): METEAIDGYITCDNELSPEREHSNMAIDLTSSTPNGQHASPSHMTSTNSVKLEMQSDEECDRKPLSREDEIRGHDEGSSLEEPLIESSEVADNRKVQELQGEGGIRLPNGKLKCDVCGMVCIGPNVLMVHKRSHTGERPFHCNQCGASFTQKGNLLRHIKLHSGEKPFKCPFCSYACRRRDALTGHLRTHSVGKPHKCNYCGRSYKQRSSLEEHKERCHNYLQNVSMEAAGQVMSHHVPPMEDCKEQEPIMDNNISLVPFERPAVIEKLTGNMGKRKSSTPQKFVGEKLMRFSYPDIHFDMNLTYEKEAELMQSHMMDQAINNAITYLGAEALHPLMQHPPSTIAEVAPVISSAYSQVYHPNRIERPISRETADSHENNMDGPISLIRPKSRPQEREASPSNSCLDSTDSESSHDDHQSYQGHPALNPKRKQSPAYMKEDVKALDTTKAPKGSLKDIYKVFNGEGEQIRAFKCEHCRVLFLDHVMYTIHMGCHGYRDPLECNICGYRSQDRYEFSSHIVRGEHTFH
T3 sequence (Q96SW2 whole entry): as the sequence (Q96SW2 whole entry) above
T3 sequence (Q16531 whole entry partner): as the sequence (Q16531 whole entry partner) above
T5 sequence (P48729 whole entry): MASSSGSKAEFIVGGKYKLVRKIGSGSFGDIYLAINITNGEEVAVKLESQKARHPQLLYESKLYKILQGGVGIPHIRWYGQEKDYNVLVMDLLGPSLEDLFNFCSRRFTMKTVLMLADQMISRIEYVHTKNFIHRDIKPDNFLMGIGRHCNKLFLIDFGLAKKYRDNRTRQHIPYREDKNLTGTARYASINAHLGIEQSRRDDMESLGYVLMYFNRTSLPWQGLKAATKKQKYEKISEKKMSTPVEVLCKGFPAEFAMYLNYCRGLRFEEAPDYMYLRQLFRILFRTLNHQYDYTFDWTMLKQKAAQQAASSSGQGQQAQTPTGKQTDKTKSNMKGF
T5 sequence (Q96SW2 whole entry): as the sequence (Q96SW2 whole entry) above
T5 sequence (Q16531 whole entry partner): as the sequence (Q16531 whole entry partner) above
T6 sequence (P15170 whole entry): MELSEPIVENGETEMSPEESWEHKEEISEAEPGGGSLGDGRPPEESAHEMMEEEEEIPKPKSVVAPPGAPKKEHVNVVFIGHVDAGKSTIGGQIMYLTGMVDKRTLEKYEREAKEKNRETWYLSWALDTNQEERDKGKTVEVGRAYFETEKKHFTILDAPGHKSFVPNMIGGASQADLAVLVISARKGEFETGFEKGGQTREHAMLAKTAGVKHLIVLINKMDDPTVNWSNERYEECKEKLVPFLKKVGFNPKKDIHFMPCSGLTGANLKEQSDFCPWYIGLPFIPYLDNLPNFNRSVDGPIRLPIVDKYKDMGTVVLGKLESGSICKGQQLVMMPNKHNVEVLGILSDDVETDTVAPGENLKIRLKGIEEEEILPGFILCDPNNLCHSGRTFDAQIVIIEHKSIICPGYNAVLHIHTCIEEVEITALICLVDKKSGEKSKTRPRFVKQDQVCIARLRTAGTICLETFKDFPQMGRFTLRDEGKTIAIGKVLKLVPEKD
T6 sequence (Q96SW2 whole entry): as the sequence (Q96SW2 whole entry) above
T6 sequence (Q16531 whole entry partner): as the sequence (Q16531 whole entry partner) above

Take `O=C1CCN(N2Cc3cc(CN4CCC(c5ccco5)CC4)ccc3C2=O)C(=O)N1` [GT-07374, 1-(5-((4-(furan-2-y1)piperidin-1-yl)methyl)-1-oxoisoindolin-2-yl)dihydropyrimidine-2,4(1H,3H)-dione]: the “WEE1 substrate protein remaining %” value on WEE1 is “B (80%< substrate protein remaining % ≤100%)”. Also, the “IKZF1 substrate protein remaining %” value at IKZF1 is “B (80%< substrate protein remaining % ≤100%)”. Also, the “IKZF2 substrate protein remaining %” value at IKZF2 was “B (80%< substrate protein remaining % ≤100%)”. The “IKZF3 substrate protein remaining %” value on IKZF3 is listed as “B (80%< substrate protein remaining % ≤100%)”. The “CK1α substrate protein remaining %” value at CK1α was “A (0% ≤ substrate protein remaining % ≤80%)”. Further, the “GSPT1 substrate protein remaining %” value on GSPT1 is on record as “A (0% ≤ substrate protein remaining % ≤80%)”.

Take `CC1(C)CN(Cc2ccc3c(c2)C(=O)N(N2CCC(=O)NC2=O)C3=O)CCN1C(c1ccccc1)c1ccccc1` [GT-06385, 5-((4-benzhydryl-3,3-dimethylpiperazin-1-yl)methyl)-2-(2,4-dioxotetrahydropyrimidin-1(2H)-yl)isoindoline-1,3-dione]: the “WEE1 substrate protein remaining %” value at WEE1 is listed as “A (0% ≤ substrate protein remaining % ≤80%)”. Also, the “IKZF1 substrate protein remaining %” value on IKZF1 is “B (80%< substrate protein remaining % ≤100%)”. In addition, the “IKZF2 substrate protein remaining %” value at IKZF2 is given as “B (80%< substrate protein remaining % ≤100%)”. The “IKZF3 substrate protein remaining %” value on IKZF3 is reported as “A (0% ≤ substrate protein remaining % ≤80%)”. Further, at CK1α, the “CK1α substrate protein remaining %” value is recorded as “B (80%< substrate protein remaining % ≤100%)”. The “GSPT1 substrate protein remaining %” value at GSPT1 is recorded as “A (0% ≤ substrate protein remaining % ≤80%)”.

In the case of `O=C1CCN(N2C(=O)c3ccc(CN4CCN(c5cccc(F)c5F)CC4)cc3C2=O)C(=O)N1` [GT-06793, 5-((4-(2,3-difluorophenyl)piperazin-1-yl)methyl)-2-(2,4-dioxotetrahydropyrimidin-1(2H)-yl)isoindoline-1,3-dione], the “WEE1 substrate protein remaining %” value at WEE1 is “B (80%< substrate protein remaining % ≤100%)”. For the same compound, the “IKZF1 substrate protein remaining %” value at IKZF1 is recorded as “B (80%< substrate protein remaining % ≤100%)”. The “IKZF2 substrate protein remaining %” value at IKZF2 is “A (0% ≤ substrate protein remaining % ≤80%)”. On IKZF3, the “IKZF3 substrate protein remaining %” value is “B (80%< substrate protein remaining % ≤100%)”. The “CK1α substrate protein remaining %” value at CK1α was “B (80%< substrate protein remaining % ≤100%)”. At GSPT1, the “GSPT1 substrate protein remaining %” value is “B (80%< substrate protein remaining % ≤100%)”.

`Cc1cc2c(C3CCN(Cc4ccc5c(c4)C(=O)N(N4CCC(=O)NC4=O)C5=O)CC3)ncnc2s1` [GT-08107, 2-(2,4-dioxotetrahydropyrimidin-1(2H)-yl)-5-((4-(6-methylthieno[2,3-d]pyrimidin-4-yl)piperidin-1-yl)methyl)isoindoline-1,3-dione]: the “WEE1 substrate protein remaining %” value on WEE1 was “A (0% ≤ substrate protein remaining % ≤80%)”. Further, the “IKZF1 substrate protein remaining %” value at IKZF1 was “A (0% ≤ substrate protein remaining % ≤80%)”. Also, the “IKZF2 substrate protein remaining %” value at IKZF2 is given as “A (0% ≤ substrate protein remaining % ≤80%)”. Besides, at IKZF3, the “IKZF3 substrate protein remaining %” value is on record as “A (0% ≤ substrate protein remaining % ≤80%)”. At CK1α, the “CK1α substrate protein remaining %” value was “A (0% ≤ substrate protein remaining % ≤80%)”. The “GSPT1 substrate protein remaining %” value on GSPT1 is “A (0% ≤ substrate protein remaining % ≤80%)”.

On to `O=C1CCN(N2C(=O)c3ccc(CN4CCN(c5ccc(F)cc5)CC4)cc3C2=O)C(=O)N1` [GT-06725, 2-(2,4-dioxotetrahydropyrimidin-1(2H)-yl)-5-((4-(4-fluorophenyl)piperazin-1-yl)methyl)isoindoline-1,3-dione], for which the “WEE1 substrate protein remaining %” value on WEE1 is listed as “B (80%< substrate protein remaining % ≤100%)”. In addition, at IKZF1, the “IKZF1 substrate protein remaining %” value was “A (0% ≤ substrate protein remaining % ≤80%)”. For the same compound, on IKZF2, the “IKZF2 substrate protein remaining %” value is listed as “B (80%< substrate protein remaining % ≤100%)”. Moreover, the “IKZF3 substrate protein remaining %” value at IKZF3 was “B (80%< substrate protein remaining % ≤100%)”. Moreover, the “CK1α substrate protein remaining %” value on CK1α is “B (80%< substrate protein remaining % ≤100%)”. Moreover, the “GSPT1 substrate protein remaining %” value on GSPT1 was “B (80%< substrate protein remaining % ≤100%)”.

For `O=C1CCN(N2Cc3cc(CN4CCN(Cc5ccc(C67CC8CC(CC(C8)C6)C7)cc5)CC4)ccc3C2=O)C(=O)N1` [GT-07721, 1-(5-((4-(4-((3r,5r,7r)-adamantan-1-yl)benzyl)piperazin-1-yl)methyl)-1-oxoisoindolin-2-yl)dihydropyrimidine-2,4(1H,3H)-dione], on WEE1, the “WEE1 substrate protein remaining %” value was “A (0% ≤ substrate protein remaining % ≤80%)”. In addition, on IKZF1, the “IKZF1 substrate protein remaining %” value is recorded as “A (0% ≤ substrate protein remaining % ≤80%)”. For the same compound, the “IKZF2 substrate protein remaining %” value on IKZF2 is recorded as “A (0% ≤ substrate protein remaining % ≤80%)”. At IKZF3, the “IKZF3 substrate protein remaining %” value is given as “A (0% ≤ substrate protein remaining % ≤80%)”. Moreover, the “CK1α substrate protein remaining %” value at CK1α was “A (0% ≤ substrate protein remaining % ≤80%)”. The “GSPT1 substrate protein remaining %” value on GSPT1 is listed as “A (0% ≤ substrate protein remaining % ≤80%)”.

`Cc1cccc(N2CCN(Cc3ccc4c(c3)C(=O)N(N3CCC(=O)NC3=O)C4=O)CC2)n1` [GT-05352, 2-(2,4-dioxotetrahydropyrimidin-1(2H)-yl)-5-((4-(6-methylpyridin-2-yl)piperazin-1-yl)methyl)isoindoline-1,3-dione]: the “WEE1 substrate protein remaining %” value at WEE1 is “B (80%< substrate protein remaining % ≤100%)”. The “IKZF1 substrate protein remaining %” value on IKZF1 is listed as “B (80%< substrate protein remaining % ≤100%)”. At IKZF2, the “IKZF2 substrate protein remaining %” value is on record as “A (0% ≤ substrate protein remaining % ≤80%)”. The “IKZF3 substrate protein remaining %” value at IKZF3 was “B (80%< substrate protein remaining % ≤100%)”. Also, the “CK1α substrate protein remaining %” value at CK1α is “B (80%< substrate protein remaining % ≤100%)”. Moreover, the “GSPT1 substrate protein remaining %” value on GSPT1 was “A (0% ≤ substrate protein remaining % ≤80%)”.

In the case of `O=C1CCN(N2Cc3cc(CN4CC=C(c5c[nH]c6cc(F)ccc56)CC4)ccc3C2=O)C(=O)N1` [GT-07574, 1-(5-((4-(6-fluoro-1H-indol-3-yl)-3,6-dihydropyridin-1(2H)-yl)methyl)-1-oxoisoindolin-2-yl)dihydropyrimidine-2,4(1H,3H)-dione], the “WEE1 substrate protein remaining %” value on WEE1 is on record as “A (0% ≤ substrate protein remaining % ≤80%)”. For the same compound, the “IKZF1 substrate protein remaining %” value at IKZF1 is “B (80%< substrate protein remaining % ≤100%)”. For the same compound, the “IKZF2 substrate protein remaining %” value at IKZF2 was “A (0% ≤ substrate protein remaining % ≤80%)”. The “IKZF3 substrate protein remaining %” value on IKZF3 is “B (80%< substrate protein remaining % ≤100%)”. The “CK1α substrate protein remaining %” value on CK1α is “A (0% ≤ substrate protein remaining % ≤80%)”. For the same compound, the “GSPT1 substrate protein remaining %” value at GSPT1 is given as “A (0% ≤ substrate protein remaining % ≤80%)”.

Take `O=C1CCN(N2C(=O)c3ccc(CN4CCC(c5cccc(F)c5Cl)CC4)cc3C2=O)C(=O)N1` [GT-06895, 5-((4-(2-chloro-3-fluorophenyl)piperidin-1-yl)methyl)-2-(2,4-dioxotetrahydropyrimidin-1(2H)-yl)isoindoline-1,3-dione]: on WEE1, the “WEE1 substrate protein remaining %” value is on record as “B (80%< substrate protein remaining % ≤100%)”. Also, the “IKZF1 substrate protein remaining %” value at IKZF1 was “A (0% ≤ substrate protein remaining % ≤80%)”. Also, the “IKZF2 substrate protein remaining %” value on IKZF2 is listed as “B (80%< substrate protein remaining % ≤100%)”. The “IKZF3 substrate protein remaining %” value on IKZF3 is on record as “B (80%< substrate protein remaining % ≤100%)”. Besides, the “CK1α substrate protein remaining %” value on CK1α is reported as “B (80%< substrate protein remaining % ≤100%)”. The “GSPT1 substrate protein remaining %” value at GSPT1 is “B (80%< substrate protein remaining % ≤100%)”.

Turning to `O=C1CCN(N2Cc3cc(CN4CC5CCC(C4)N5c4cccc(Cl)c4Cl)ccc3C2=O)C(=O)N1` [GT-07429, 1-(5-((8-(2,3-dichlorophenyl)-3,8-diazabicyclo[3.2.1]octan-3-yl)methyl)-1-oxoisoindolin-2-yl)dihydropyrimidine-2,4(1H,3H)-dione], at WEE1, the “WEE1 substrate protein remaining %” value is given as “B (80%< substrate protein remaining % ≤100%)”. In addition, the “IKZF1 substrate protein remaining %” value on IKZF1 is recorded as “A (0% ≤ substrate protein remaining % ≤80%)”. The “IKZF2 substrate protein remaining %” value at IKZF2 is on record as “B (80%< substrate protein remaining % ≤100%)”. The “IKZF3 substrate protein remaining %” value at IKZF3 was “B (80%< substrate protein remaining % ≤100%)”. For the same compound, the “CK1α substrate protein remaining %” value on CK1α is listed as “B (80%< substrate protein remaining % ≤100%)”. For the same compound, at GSPT1, the “GSPT1 substrate protein remaining %” value is reported as “B (80%< substrate protein remaining % ≤100%)”.

Consider `Cc1nc(N2CCN(Cc3ccc4c(c3)CN(N3CCC(=O)NC3=O)C4=O)CC2)c2ccsc2n1` [GT-08067, 1-(5-((4-(2-methylthieno[2,3-d]pyrimidin-4-yl)piperazin-1-yl)methyl)-1-oxoisoindolin-2-yl)dihydropyrimidine-2,4(1H,3H)-dione], for which the “WEE1 substrate protein remaining %” value on WEE1 is given as “B (80%< substrate protein remaining % ≤100%)”. Further, the “IKZF1 substrate protein remaining %” value on IKZF1 is “B (80%< substrate protein remaining % ≤100%)”. For the same compound, at IKZF2, the “IKZF2 substrate protein remaining %” value is reported as “A (0% ≤ substrate protein remaining % ≤80%)”. In addition, the “IKZF3 substrate protein remaining %” value at IKZF3 was “B (80%< substrate protein remaining % ≤100%)”. The “CK1α substrate protein remaining %” value at CK1α is “B (80%< substrate protein remaining % ≤100%)”. Moreover, the “GSPT1 substrate protein remaining %” value at GSPT1 is listed as “B (80%< substrate protein remaining % ≤100%)”.
